Bridge positions count the residues as written; N and C are the ends. Ends that are not written are not given here.
Experiments:
Assay type in all cases: in vivo
[1] = system: TNFα-dependent septic shock in mice; assay: model of endotoxinic shock (LPS with Galactosamine) after preimmunization; conditions: Balb/c mice preimmunized with KLH-coupled peptide, shock on day D50 by LPS with Galactosamine; control KLH alone; p=0.008
Protocol: 4 murine TNFα peptides coupled to the KLH carrier protein, including the cyclized peptide CVSRFAISYQEKVNLLSC (SEQ ID NO:15) called TNFα-6, were tested in a model of endotoxinic shock. For this purpose, Balb/c mice were preimmunized against these peptides on days D0, […], and D40. On day D50, the mice were subjected to shock, i.e. they were injected with LPS with Galactosamine. A control was carried out on mice immunized against KLH alone.
It is noted that all the mice died after two days, except for the group immunized against the TNFα-6 peptide where the mice were protected. The protection conferred by the immunization was very significant (p=0.008).

native mIL1β cytokine = assay: ELISA test of serum antibodies against native mIL1β after immunization; design: unit not given here; conditions: ELISA on serum day D50; groups of 4 mice, 20 ug peptide coupled to KLH, boosters D20 and D40
Protocol: (§1) 6 groups of 4 mice were immunized against 20 ug of the murine IL1β peptides IRQLHYRLRDEQQKSL (group 1) (SEQ ID NO:11), SFVQGEPSNDKIP (group 2) (SEQ ID NO:12), QYPKKKMEKRFVFNKIEV (group 3) (SEQ ID NO:13), IIDFTMESVSS (group 4) (SEQ ID NO:14), and 20 ug of the murine TNFα peptide KYLDFAESGQVY (group 5) (SEQ ID NO:6) all coupled to KLH. Group 6 corresponds to mice immunized by KLH alone. A booster was administered on days D20 and D40. On day D50 the mice were sacrificed and the antibodies directed against the native mTNFα cytokine and the native mIL1β cytokine in the serums were measured by an ELISA test.

native mTNFα cytokine = assay: ELISA test of serum antibodies against native mTNFα after immunization; design: unit not given here; conditions: ELISA on serum day D50; groups of 4 mice, 20 ug peptide coupled to KLH, boosters D20 and D40
Protocol: as §1

[2] = system: collagen arthritis induced in mice; assay: model of collagen arthritis after preimmunization; conditions: DBA1 mice preimmunized with KLH-coupled peptide, collagen in Freund's adjuvant D80 and D95, scored D100-D160; control KLH alone; p=0.0003, ANOVA test
Protocol: 3 murine IL1β peptides coupled to the KLH protein, including the cyclized IL1-6 peptide of sequence YCYISTSQAEHKPVFLGC (SEQ ID NO:16), were tested in a model of collagen arthritis. For this purpose, DBA1 mice were preimmunized against these peptides on days D0, D20, D40, […]. On day D80 the mice were immunized against collagen in Freund's adjuvant, and similarly on day D95. The development of arthritis was monitored between day D100 and day D160: twice weekly, the mice were examined and a score was attributed to them as a function of the state of inflammation of their joints (0=no inflammation, 1=slight inflammation, 2=average inflammation, 3=strong inflammation).

Sequence | survival of mice subjected to septic shock (protection) [1] | Anti-IL1β response Average (native mIL1β cytokine) | Anti-TNFα response Average (native mTNFα cytokine) | clinical score of joint inflammation (protection with respect to control) [2]
CVSRFAISYQEKVNLLSC (disulfide 1-18 (inferred)) [TNFα-6, cyclized murine TNFα peptide] | protected |  |  | 
IIDFTMESVSS [Group 4, murine IL1β peptide 142-152] |  | 0.8 | 0.12 | 
IRQLHYRLRDEQQKSL [Group 1, murine IL1β peptide 3-18] |  | 1.5 | 0.13 | 
KYLDFAESGQVY [Group 5, murine TNFα peptide 140-150] |  | 0.31 | 1.3 | 
QYPKKKMEKRFVFNKIEV [Group 3, murine IL1β peptide 89-106] |  | 1.6 | 0.18 | 
SFVQGEPSNDKIP [Group 2, murine IL1β peptide 45-57] |  | 1.9 | 0.15 | 
VSRFAISYQEKVNLLS [SEQ ID NO:1, peptide area 80-95 of the murine TNFα cytokine] | capable of blocking TNFα-dependent septic shock in mice |  |  | 
YCYISTSQAEHKPVFLGC (disulfide 2-18 (inferred); also: coupled to KLH carrier protein) [IL1β-6, cyclized murine IL1β peptide] |  |  |  | strong protection level
YISTSQAEHKPVFLG [SEQ ID NO:3, peptide area 121-135 of the murine IL1β cytokine] |  |  |  | capable of blocking collagen arthritis induced in mice

— patent US20110182922A1, “PEPTIDES OF IL1 BETA AND TNF ALPHA AND METHOD OF TREATMENT USING SAME” (VAX CONSULTING, priority 2004, published 2011)
